Data reported in PMC9961948, “Interaction of Amphipathic Peptide from Influenza Virus M1 Protein with Mitochondrial Cytochrome Oxidase” (International Journal of Molecular Sciences, 2023).
Where “and” joins values, the source holds several entries; their conditions need not be identical. Equal entries are not always repeated. Entries after “also recorded” stand apart in the source; their conditions may differ. Where two headings read alike, the source gives them in different places.

Tests used:
[1] = target: T1, cytochrome c oxidase (CcO) purified from heart mitochondria (Bos taurus, UniProt P00396+P07471+P68530); conditions: earlier studies on steroids, Triton X-100 and thyroid hormones; ref [47],[48],[49]; read-out: dissociation constant of the complex between DM and BABS; cited from earlier work
T1 construct: Cytochrome c oxidase was purified from the heart mitochondria of Bos taurus; from tissue; host or cells: bovine heart mitochondria
From the text: The inhibition is notable by features characteristic of BABS regulatory site ligands such as some steroids and vitamin D [47], Triton Х-100 [48], and thyroid hormones Т3, Т4 [49]. […] The resistance of peroxidase activity is explained by the fact that the BABS ligands block the proton channel K, which is not involved in the p ...

[2] = target: T1, cytochrome c oxidase (CcO) purified from heart mitochondria; assay: Cytochrome oxidase activity of solubilized mitochondrial CcO (oxygen uptake); assay type: biochemical; conditions: for enzyme activation at low concentrations: solubilized CcO from bovine heart mitochondria and from R. sphaeroides, authors' unpublished data
[3] = Permeabilization of calcein-loaded asolectin liposomes (calcein release); conditions: 5 μM peptide
[4] = target: T2, CcO in rat liver mitochondria (Rattus norvegicus, UniProt P00406+P05503); assay: CcO activity in the mitochondrial membrane (respiration of rat liver mitochondria); assay type: biochemical; conditions: 100 μM peptide added in the course of respiration
T2 construct: Rat liver mitochondria were isolated by differential centrifugation; from tissue; host or cells: rat liver mitochondria
T2 sequence (P00406 whole entry, other chains not shown): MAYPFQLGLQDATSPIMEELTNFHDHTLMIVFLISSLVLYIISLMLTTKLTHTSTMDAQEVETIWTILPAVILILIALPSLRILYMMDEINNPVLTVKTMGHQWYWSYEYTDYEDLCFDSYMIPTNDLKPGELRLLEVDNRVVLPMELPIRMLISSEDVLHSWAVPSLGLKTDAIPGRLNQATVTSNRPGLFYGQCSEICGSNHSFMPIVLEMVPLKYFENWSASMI

CCCCCCCCCCCCO[C@@H]1O[C@H](CO)[C@@H](O[C@H]2O[C@H](CO)[C@@H](O)[C@H](O)[C@H]2O)[C@H](O)[C@H]1O [DM, dodecyl-maltoside, reference compound]
Kd [1]: 1000 to 1500 µM | Kd ([2]; dissociation constant of the enzyme-DM complex in the absence of P4 (Kc), solubilized mitochondrial CcO, X-axis intercept of Ki(app) for P4 versus [DM]): 500 µM and ~500 µM

C[C@H](CCC(=O)O)[C@H]1CC[C@H]2[C@@H]3[C@H](O)C[C@@H]4C[C@H](O)CC[C@]4(C)[C@H]3C[C@H](O)[C@]12C [cholate, reference compound]
enzyme activation at low concentrations [2]: 1.5–2 fold

C[C@H](CCC(=O)O)[C@H]1CC[C@H]2[C@@H]3CC[C@@H]4C[C@H](O)CC[C@]4(C)[C@H]3C[C@H](O)[C@]12C [deoxycholate, reference compound]
enzyme activation at low concentrations [2]: 1.5–2 fold | maximum activation of CcO ([2]; solubilized mitochondrial CcO, 1 mM DM, 1.2 mM deoxycholate): approximately twice

Ac-STKLWEMLVELGNMDKAVKLWRKLSR-NH2 [A4]
time to reach the 100% level of calcein release ([3]; 100% = after Triton X-100 0.1%): 3 min | t1/2 of fluorescence increase (calcein release) ([3]; liposomes 0.1 mg lipid/mL, 20 mM MOPS/Tris pH 7.3, 0.2 mM EDTA, fluorescence 520 nm (excitation 490 nm)): ~18 s | effect on respiration rate of mitochondria [4]: complete inhibition

Ac-WVGMALENRKLKKDRLKVLKMLRWT-NH2 [A1]
calcein release compared with P4 and A4 [3]: more than two orders of magnitude slower | rate of fluorescence increase (calcein release) [3]: < 1 % of the final level per 1 min | effect on respiration rate of mitochondria [4]: does not reduce the rate of enzyme activity; also recorded: almost does not change | Ki ([2]; solubilized bovine heart CcO 20 nM, oxygen uptake, Clark electrode, 25 °C, BM 50 mM Hepes/Tris pH 7.6, 50 mM KCl, 1 mM (0.05%) DM, 5 mM ascorbate, 0.1 mM TMPD, 10 μM cytochrome c, fit by Equation (1), read-out: Inhibition of CcO, Solubilized, Ki(app)): 0.0208 mM
